Values after ≈ are worked out from the molar mass of the structure shown.
Experiments:
[1] = tested on: Plasmodium falciparum; test: Antiplasmodial activity against Plasmodium falciparum K1; format: functional, organism-based
[2] = tested on: Plasmodium falciparum; test: Antiplasmodial activity against Plasmodium falciparum NF54; format: functional, organism-based
[3] = tested on: Trypanosoma brucei rhodesiense; test: Antitrypanosomal activity against Trypanosoma rhodesiense; format: functional, organism-based
[4] = tested on: tyrosine kinase; test: Inhibition of tyrosine kinase at 1 ug/uL

inhibition [4] [%]	Compound	IC50 [1] [µg/mL]	IC50 [2] [µg/mL]	IC50 [3] [µg/mL]
	C[C@@H]1CC[C@H]2[C@@H](C)C(=O)O[C@@H]3O[C@@]4(C)CC[C@@H]1[C@]32OO4 [ARTEMISININ]	0.0014 (≈ 0.00496 µM)	0.0025 (≈ 0.00885 µM)	
87	C=C1CCC[C@H]2[C@](C)(CC3=C(O)C(=O)C=C(OC)C3=O)[C@@H](C)CC[C@]12C [ILIMAQUINONE]	1.74 (≈ 4.86 µM)	0.949 (≈ 2.65 µM)	7.7 (≈ 21.5 µM)
	COC(=O)c1cc(O)c(O)c2c1[C@]1(C)CC[C@H]3C(C)(C)CCC[C@]3(C)[C@H]1C2 [PELOROL]	0.786 (≈ 2.11 µM)	1.91 (≈ 5.13 µM)	17.4 (≈ 46.7 µM)

From ChEMBL document CHEMBL1155571, “Pelorol from the tropical marine sponge Dactylospongia elegans” (J Nat Prod, 2000)
